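Growth conditions: 96-well plates. Treatment: test compound, 48 hours, 5 concentrations. Analysis: linear interpolation between bracketing concentrations; unreached endpoints set to highest concentration. TGI denotes the concentration required for complete inhibition of growth.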
Columns and labels:
Experiment in all cases: growth of human tumour cells (NCI), 48 h
[1] = system: 786-0 renal
[2] = system: A498 renal
[3] = system: A549 NSCLC
[4] = system: ACHN renal
[5] = system: BT-549 breast
[6] = system: CAKI-1 renal
[7] = system: CCRF-CEM leukemia
[8] = system: COLO 205 colon
[9] = system: DU-145 prostate
[10] = system: EKVX NSCLC
[11] = system: HCC-2998 colon
[12] = system: HCT-116 colon
[13] = system: HCT-15 colon
[14] = system: HL-60(TB) leukemia
[15] = system: HOP-62 NSCLC
[16] = system: HOP-92 NSCLC
[17] = system: HT29 colon
[18] = system: IGROV1 ovarian
[19] = system: K-562 leukemia
[20] = system: KM12 colon
[21] = system: LOX IMVI melanoma
[22] = system: M14 melanoma
[23] = system: MALME-3M melanoma
[24] = system: MCF7 breast
[25] = system: MDA-MB-231 breast
[26] = system: MDA-MB-435
[27] = system: MDA-N
[28] = system: MOLT-4 leukemia
[29] = system: NCI-H226 lung
[30] = system: NCI-H23 lung
[31] = system: NCI-H460 lung
[32] = system: NCI-H522 lung
[33] = system: NCI/ADR-RES ovarian
[34] = system: OVCAR-3 ovarian
[35] = system: OVCAR-4 ovarian
[36] = system: OVCAR-5 ovarian
[37] = system: OVCAR-8 ovarian
[38] = system: PC-3 prostate
[39] = system: RPMI-8226 leukemia
[40] = system: RXF 393 renal
[41] = system: SF-268 CNS
[42] = system: SF-295 CNS
[43] = system: SF-539 CNS
[44] = system: SK-MEL-2 melanoma
[45] = system: SK-MEL-28 melanoma
[46] = system: SK-MEL-5 melanoma
[47] = system: SK-OV-3 ovarian
[48] = system: SN12C renal
[49] = system: SNB-19 CNS
[50] = system: SNB-75 CNS
[51] = system: SR leukemia
[52] = system: SW-620 colon
[53] = system: T-47D breast
[54] = system: TK-10 renal
[55] = system: U251 CNS
[56] = system: UACC-257 melanoma
[57] = system: UACC-62 melanoma
[58] = system: UO-31 renal
[59] = system: HS 578T breast

Measured: TGI

Cc1cccc2sc(NC(=O)c3cc([N+](=O)[O-])ccc3Cl)nc12
38.4 µM: [38]
> 71.3 µM: [8]
> 44.8 µM: [6]
> 29.1 µM: [13]
17.4 µM: [9] | [34]
12.9 µM: [40]
> 24.2 µM: [33]
4.1 µM: [32]
51.7 µM: [3]
12 µM: [12]
10.7 µM: [18]
4.67 µM: [1]
> 33.7 µM: [41]
3.69 µM: [27]
3.34 µM: [48]
19.9 µM: [30]
6.64 µM: [21]
40.2 µM: [11]
6.25 µM: [43]
> 94.2 µM: [45]
9.95 µM: [37]
> 64.1 µM: [29]
2.76 µM: [7]
12.1 µM: [20]
5.32 µM: [22] | [46]
4.48 µM: [17]
30.3 µM: [23]
6.35 µM: [52]
> 31.2 µM: [16]
12.6 µM: [26]
9.5 µM: [5]
10.4 µM: [58]
> 73.1 µM: [15]
28.4 µM: [36]
11.4 µM: [54] | [55]
> 21.1 µM: [50]
not listed: [59]
> 100 µM: all other assays above

Cc1ccc(/C=C2\NC(=S)N(CN3CCOCC3)C2=O)cc1
not listed: [5] | [6] | [11] | [14] | [31] | [32] | [40] | [43] | [53]
> 100 µM: all other assays above

OCCCSc1ccccc1SCCCO
not listed: [2] | [4] | [6] | [23] | [29] | [39] | [40] | [44] | [59]
> 100 µM: all other assays above

N#CC1C(=O)Nc2sc(C(=O)c3ccc(Br)cc3)c(N)c2C12CCCCC2 (centres undefined)
47.7 µM: [45]
39 µM: [22]
40.1 µM: [8]
80.3 µM: [7]
78.8 µM: [32]
57.1 µM: [38]
42.6 µM: [43]
37.7 µM: [44]
80.8 µM: [29]
31.8 µM: [40]
58.9 µM: [26]
57.7 µM: [11]
32.5 µM: [46]
63.6 µM: [2]
67.7 µM: [25]
52.7 µM: [34]
44.1 µM: [20]
69.4 µM: [52]
84.2 µM: [23]
54.1 µM: [57]
55.4 µM: [27]
not listed: [14] | [16] | [59]
> 100 µM: all other assays above

— PubChem BioAssay (NCI)
